Read-outs that look alike come from different tables or passages of the source. Where no end group is shown, it is not given here.

Data set [1] concerns P. aeruginosa strain ATCC 27853. Format: cell-based. The conditions noted are these: ATCC 27853. In a few lines:
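Broth microdilution per NCCLS M7-T2: final peptide levels 0.25 to 256 μg/ml (twofold steps), inoculum 1-5×10^5 CFUs/ml in full-strength Mueller Hinton broth. MIC read as lowest concentration leaving the well clear after 16-20 hours at 37° C.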

The subject of data set [2] is MDA-435 human breast carcinoma cells. Format: cell-based. As to conditions: 24 h. As for the experimental part:
Human lung carcinoma cells, A-549 (ATCC), and human breast carcinoma cells, MDA-435 (from Sandoz), were grown in Ham's F12K medium (GIBCO-BRL) supplemented with […] fetal bovine serum. Human chronic myelogenous leukemia cells, K-562 (ATCC), were maintained in RPMI 1640 medium (GIBCO-BRL) supplemented with 10% fetal bovine serum. Human melanoma cell line, WM 1617 (from the Wistar Institute), was maintained in 2% Tumor media.
Cytotoxicity assays were performed on the cell lines described above using CytoLite (Packard Instrument Company) following the manufacture's instruction. Briefly, 2×10^4cells/well were seeded into black, 96-well ViewPlates (Packard Instrument Company) in 100 μl/well growth medium. Ser. dilutions of Magainin peptides were then added into the cells and the plates incubated for 24 hours in a humidified 5% CO2 atmosphere at 37° C. Following incubation, 25 μl/well of CytoLite activator solution was added followed by 125 μl/well of amplifier solution. Luminescence was measured on TopCount Microplate Scintillation and Luminescence counter (Packard Instrument Company) using a 1 second count time in SPC (single photon counting) mode at 25 ° C. All assays were performed in triplicate. The peptides tested in this assay were MSI-78(SEQ ID NO: 154 —NH2), MSI-1858(SEQ ID NO: 154 —NH2 Methane Sulfonate), MSI-344(SEQ ID NO: 154 —OH) and MSI-1857(SEQ ID NO: 154 —OH Methane Sulfonate). The results of these assays are shown in FIGS. 2-9 with the corresponding IC50 values in Table VIII. In all cases the activity of the methane sulfonated peptide was as good or better than the parent peptide as indicated by both the survival curves and the IC50 values.

A short description of data set [3]: MTD of repeat-dose intraperitoneal administration. Format: in vivo, SCID mice. As to conditions: for MTD at 504 h: male, SCID (Fox Chase C.B-17/IcrTac-scidfDF), mouse, in vivo, ip. As for the experimental part:
Determinations of a maximal tolerated dose (MTD) of repeat-dose intraperitoneal (i.p.) administration of MSI-344 or MSI-1857 in 60 SCID mice were done. Mice were injected with various doses of MSI-344 or MSI-1857 twice or thrice per week. Survival and body weight were monitored. On a twice per week dosing schedule, the MTDs of MSI-344 and MSI-1857 were 12 and 134 mg/kg/week, respectively. […] On a thrice per week dosing schedule, no deaths occurred in any groups, with high dose groups of MSI-344 and MSI-1857 receiving 90 mg/kg/week and […], respectively. A transient body weight loss was seen after initial dosing in most MSI-344 and MSI-1857 groups. No body weight loss greater than 6% occurred in any group on the thrice per week dosing schedule.
To determine estimates of MTDs of MSI-344 and MSI-1857 when administered intraperitoneally on repeat-dose regimens in SCID mice. The selection of SCID mice was based on the future plans of using this strain as host for xenograft human tumor efficacy models, and a pre-requisite for determining MTD for chronic administration that may be used during the efficacy model.
SCID mice are immunocompromised and therefore they were housed and handled in sterile environments. They had access to sterile water and sterilized chow ad lib.
A 1 mg/mL solution of MSI-344 was made in saline (0.9% sodium chloride injection USP, Abbott, North Chicago, Ill.) corrected for peptide content. Solutions of MSI-344 at concentrations of 0.6, 0.3, and 0.1 mg/mL were made by diluting the 1 mg/mL solution using saline as diluent. A 10 mg/mL solution of MSI-1857 was made in saline.
Solutions of MSI-1857 at concentrations of 6.7, 3.3, 3, 2, and 1 mg/mL were made by diluting the 10 mg/mL solution using saline as diluent.
Mice (four mice per dose group) were intraperitoneally administered MSI-344 or MSI-1857 using an injection volume of 10 mL/kg of the appropriate solution concentration on a twice per week (Groups 1 through 7) or thrice per week (Groups 8 through 15) dosing schedule every week for 20 weeks. Survival was monitored daily and body weights were recorded three times per week An interim analysis was performed at 3 weeks and the results of this interim analysis is presented in the present report.

GIGKFLKKAKKFGKAFVKILKK [MSI-344]: the “MIC P. aeruginosa ATCC 27853” value in data set [1] stood at 16 µg/mL. The same sequence showed an IC50 in data set [2] of 8 µM. Besides, the “effect of initial dosings on body weight” value in data set [3] (all surviving groups except the low dose group on the thrice-per-week schedule) was “dose-dependent transient body weight loss”. Moreover, the “MTD, thrice per week dosing schedule” value in data set [3] (i.p., SCID mice, interim analysis at 3 weeks) is given as “greater than or equal to 18 mg/kg/week”. Also, the MTD at 504 h was at least 2.57 mg/kg/day in data set [3] (SCID mice, interim analysis at 3 weeks, read-out: MTD, thrice per week dosing schedule) and 1.71 mg/kg/day in data set [3] (SCID mice, interim analysis at 3 weeks, read-out: MTD, twice per week dosing schedule (converted)).

The record behind these values is US6348445B1, “Biologically active peptides with reduced toxicity in animals and a method for preparing same” (priority 1992, dated 2002).
